According to patent publication US11866405B2, “Substituted indazoles as IRAK4 inhibitors” (AstraZeneca AB, priority 2020, dated 2024):

What was measured:
[1] = target: human recombinant IRAK4 protein (Homo sapiens (Human), UniProt Q9NWZ3); test: IRAK4 enzyme assay (mass spectrometry readout); assay type: biochemical; conditions: 3 mM ATP, 0.2 nM enzyme; geometric mean of at least n=2, * single experiment
Procedure: Potency of IRAK4 Inhibitor Compounds in IRAK4 Enzyme Assay
The inhibitory activity of compounds against IRAK4 were determined in an enzymatic assay using mass spectrometry readout. Ten point half-log compound concentration response curves, with a top concentration of 1 μM or 10 μM, were generated from 10 mM stocks of compound solubilized in DMSO using an Echo 655 (Labcyte Inc) and added to 384 well assay plates (Greiner #781280). To the assay plates, 10 μL of human recombinant IRAK4 protein (Life Technologies #PV4002) diluted to a final concentration of 0.2 nM in assay buffer (50 mM Tris-HCl pH 7.4, 10 mM MgCl, 5 mM glutathione, 0.01% BSA, 3 mM ATP) was added. The enzyme was incubated with the compounds at room temperature for 15 minutes before a peptide substrate ([…], Innovagen custom synthesis, 10 mM in DMSO) was added to each well to a final concentration of 10 μM using an Echo 655 (Labcyte Inc). After two hours at room temperature, the reaction was stopped with 90 μL of 0.4% formic acid (Merck #33015). The unphosphorylated and phosphorylated peptide were measured by LC-MS/MS on a Waters TQ-S mass spectrometer. Peaks were integrated using the TargetLynx software and the ratios between phosphorylated and unphosphorylated peptides were calculated. Curves were fitted and compound potencies determined in Genedata Screener 15 (Genedata AG). Data presented are the geometric mean of at least n=2, or as denoted by an * are obtained from a single experiment.

[2] = target: IRAK4 auto-phosphorylation (Homo sapiens (Human), UniProt Q9NWZ3); test: IRAK4 phosphorylation cell assay in IL-1β-stimulated Karpas-299 cells; assay type: cell-based; conditions: IL-1β 22.7 ng/mL, pIRAK4 (Thr345/Ser346), geometric mean of at least 2 experiments
Sequence of IRAK4 auto-phosphorylation (Q9NWZ3 whole entry): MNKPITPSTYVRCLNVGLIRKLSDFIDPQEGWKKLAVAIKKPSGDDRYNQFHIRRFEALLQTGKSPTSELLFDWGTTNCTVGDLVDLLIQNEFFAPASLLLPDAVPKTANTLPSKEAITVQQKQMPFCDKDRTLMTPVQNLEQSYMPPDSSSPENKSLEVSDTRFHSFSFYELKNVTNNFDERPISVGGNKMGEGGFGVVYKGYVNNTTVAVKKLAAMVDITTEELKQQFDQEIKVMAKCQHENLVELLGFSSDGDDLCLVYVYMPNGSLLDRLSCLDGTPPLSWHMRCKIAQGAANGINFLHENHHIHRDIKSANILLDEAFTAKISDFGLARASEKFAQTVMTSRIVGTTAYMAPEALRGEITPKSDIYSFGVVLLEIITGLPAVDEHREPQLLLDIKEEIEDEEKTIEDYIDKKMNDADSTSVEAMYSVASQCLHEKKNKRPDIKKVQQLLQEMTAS
Procedure: IRAK4 Phosphorylation Cell Assay
The activation of IRAK4 by TLR or IL-1R ligands leads to IRAK4 auto-phosphorylation, which can be prevented by IRAK4 kinase inhibitors. The effect of IRAK4 inhibitor compounds on IRAK4 auto-phosphorylation was assessed in IL-1β-stimulated Karpas-299 cells as a measurement of cellular potency. Karpas-299 cells were cultured in RPMI 1640 (Gibco 61870-010) containing 10% FBS (Gibco #10270). Cells were plated at 2×10^4 cells per well in poly-D-lysine coated 384 well plates (Corning #356663) to which compounds had been added at various concentrations (10 point half log dose response with a final top concentration of 30 μM) using an Echo 655 (Labcyte Inc). Cells were centrifuged (250 g, 4 mins), incubated at 37° C. for 1 h, then stimulated with 22.7 ng/mL recombinant IL-1β (R&D Systems, #201-LB-025) at 37° C. for 10 mins, followed by fixation in 4% paraformaldehyde for 10 mins and permeabilization in ice-cold 70% MeOH for 30 mins. Cells were washed twice with phosphate-buffered saline (PBS) on a BlueWasher (BlueCatBio) then blocked with PBS containing 10% FBS for 20 mins. Blocking solution was removed with a BlueWasher and cells were stained with anti-pIRAK4 (Thr345/Ser346) (CST, #11927, 1:400) in blocking buffer with 0.05% Tween-20 for 1 h, then washed twice with PBS containing 0.05% Tween-20 on a BlueWasher, followed by staining with a Alexa 647-conjugated secondary anti-rabbit IgG antibody (CST, #4414, 1:2,000) and Hoechst 33342 (Sigma, 1:2,000) in blocking buffer with 0.05% Tween-20 for 30 mins. Finally, the cells were washed twice with PBS containing 0.05% Tween-20 and imaged on an ImageXpress Micro (Molecular Devices) with a 10× air objective using the appropriate filters. Images were analysed in Columbus (PerkinElmer) and the fluorescence intensity per cell from the secondary antibody was quantified. The quantified data were analysed in Genedata Screener 15 (Genedata AG). […] IC50 values are the geometric mean of at least 2 experiments.

Sequence of human recombinant IRAK4 protein (Q9NWZ3 whole entry): as above

SMILES: COc1cc2nn([C@@H]3CC[C@H](O)[C@@H](C)C3)cc2cc1C(=O)Nc1cnc2cccnn12 (single isomer, unassigned) [Example 83]
- IC50 [1]: 2.1 nM
- IC50 [2]: 34 nM

SMILES: COc1cc2nn([C@H]3CCC[C@@H](O)[C@H]3C)cc2cc1C(=O)Nc1cnc2cccnn12 (single isomer, unassigned) [Example 104]
- IC50 [1]: 1.1 nM
- IC50 [2]: 25 nM

SMILES: COc1cc2nn([C@H]3CCC[C@@H](O)[C@H]3C)cc2cc1C(=O)Nc1cnc2cccnn12 (single isomer, unassigned) [Example 105]
- IC50 [1]: 6.5 nM
- IC50 [2]: 96 nM

SMILES: COc1cc2nn([C@H]3CCC[C@@H](O)[C@@H]3C)cc2cc1C(=O)Nc1cnc2cccnn12 (single isomer, unassigned) [Example 108]
- IC50 [1]: 0.4 nM
- IC50 [2]: 16 nM

SMILES: COc1cc2nn([C@H]3CCC[C@@H](O)[C@@H]3C)cc2cc1C(=O)Nc1cnc2cccnn12 (single isomer, unassigned) [Example 109]
- IC50 [1]: 0.6 nM
- IC50 [2]: 15 nM

SMILES: COc1cc2nn(C3CCC4(CC3)COCC(=O)N4C)cc2cc1C(=O)Nc1cnn2cccnc12 (single isomer, unassigned) [Example 118, 6-Methoxy-2-(1-methyl-2-oxo-4-oxa-1-azaspiro[5.5]undecan-9-yl)-N-(pyrazolo[1,5-a]pyrimidin-3-yl)-2H-indazole-5-carboxamide]
- IC50 [1]: 13.9 nM
- IC50 [2]: 199 nM

SMILES: COc1cc2nn(C3CCC4(CC3)COCC(=O)N4C)cc2cc1C(=O)Nc1cnn2cccnc12 (single isomer, unassigned) [Example 119, 6-Methoxy-2-(1-methyl-2-oxo-4-oxa-1-azaspiro[5.5]undecan-9-yl)-N-(pyrazolo[1,5-a]pyrimidin-3-yl)-2H-indazole-5-carboxamide]
- IC50 [1]: 0.5 nM
- IC50 [2]: 16 nM

SMILES: COc1cc2nn([C@H]3CC[C@@]4(CCC(=O)N4C)CC3)cc2cc1C(=O)Nc1cnc2cccnn12 [Example 1, N-(Imidazo[1,2-b]pyridazin-3-yl)-6-methoxy-2-((5r,8r)-1-methyl-2-oxo-1-azaspiro[4.5]decan-8-yl)-2H-indazole-5-carboxamide]
- IC50 [1]: 0.1 nM
- IC50 [2]: 5 nM

SMILES: COc1cc2nn([C@H]3CC[C@]4(CCC(=O)N4C)CC3)cc2cc1C(=O)Nc1cnc2cccnn12 [Example 2, N-(Imidazo[1,2-b]pyridazin-3-yl)-6-methoxy-2-((5s,8s)-1-methyl-2-oxo-1-azaspiro[4.5]decan-8-yl)-2H-indazole-5-carboxamide]
- IC50 [1]: 3.4 nM
- IC50 [2]: 124 nM

SMILES: COc1cc2nn([C@H]3CC[C@@H](C(=O)N(C)C)CC3)cc2cc1C(=O)Nc1cnc2cccnn12 [Example 3, 2-((1s,4s)-4-(Dimethylcarbamoyl)cyclohexyl)-N-(imidazo[1,2-b]pyridazin-3-yl)-6-methoxy-2H-indazole-5-carboxamide]
- IC50 [1]: 8.5 nM
- IC50 [2]: 272 nM

SMILES: COc1cc2nn([C@H]3CC[C@H](C(=O)N(C)C)CC3)cc2cc1C(=O)Nc1cnc2cccnn12 [Example 4, 2-((1r,4r)-4-(Dimethylcarbamoyl)cyclohexyl)-N-(imidazo[1,2-b]pyridazin-3-yl)-6-methoxy-2H-indazole-5-carboxamide]
- IC50 [1]: < 0.3 nM
- IC50 [2]: 17 nM

SMILES: COc1cc2nn([C@H]3CC[C@@H](N(C)C(C)=O)CC3)cc2cc1C(=O)Nc1cnc2cccnn12 [Example 22, N-(Imidazo[1,2-b]pyridazin-3-yl)-6-methoxy-2-((1s,4s)-4-(N-methylacetamido)cyclohexyl)-2H-indazole-5-carboxamide]
- IC50 [1]: 5.1 nM
- IC50 [2]: 268 nM

SMILES: COc1cc2nn([C@H]3CC[C@@H](N(C)C(C)=O)CC3)cc2cc1C(=O)Nc1cnn2cnccc12 [Example 24, 6-Methoxy-2-((1s,4s)-4-(N-methylacetamido)cyclohexyl)-N-(pyrazolo[1,5-c]pyrimidin-3-yl)-2H-indazole-5-carboxamide]
- IC50 [1]: 83.1 nM
- IC50 [2]: 668 nM
